Reference: patent US20230066011A1, “PYRROLOPYRIMIDINE DERIVATIVE, AND PHARMACEUTICAL COMPOSITION FOR PREVENTING OR TREATING PROTEIN KINASE-RELATED DISEASE COMPRISING SAME AS ACTIVE INGREDIENT” (VORONOI CO., LTD., priority 2019, published 2023)

Assays:
TTK = biological target: T1, TTK (Homo sapiens, UniProt P33981); assay: TTK enzyme inhibition, ADP-Glo kinase assay; assay type: biochemical; design: purchased SignalChem T20-10G; settings: ATP 5 μM
T1 sequence (P33981 1-857): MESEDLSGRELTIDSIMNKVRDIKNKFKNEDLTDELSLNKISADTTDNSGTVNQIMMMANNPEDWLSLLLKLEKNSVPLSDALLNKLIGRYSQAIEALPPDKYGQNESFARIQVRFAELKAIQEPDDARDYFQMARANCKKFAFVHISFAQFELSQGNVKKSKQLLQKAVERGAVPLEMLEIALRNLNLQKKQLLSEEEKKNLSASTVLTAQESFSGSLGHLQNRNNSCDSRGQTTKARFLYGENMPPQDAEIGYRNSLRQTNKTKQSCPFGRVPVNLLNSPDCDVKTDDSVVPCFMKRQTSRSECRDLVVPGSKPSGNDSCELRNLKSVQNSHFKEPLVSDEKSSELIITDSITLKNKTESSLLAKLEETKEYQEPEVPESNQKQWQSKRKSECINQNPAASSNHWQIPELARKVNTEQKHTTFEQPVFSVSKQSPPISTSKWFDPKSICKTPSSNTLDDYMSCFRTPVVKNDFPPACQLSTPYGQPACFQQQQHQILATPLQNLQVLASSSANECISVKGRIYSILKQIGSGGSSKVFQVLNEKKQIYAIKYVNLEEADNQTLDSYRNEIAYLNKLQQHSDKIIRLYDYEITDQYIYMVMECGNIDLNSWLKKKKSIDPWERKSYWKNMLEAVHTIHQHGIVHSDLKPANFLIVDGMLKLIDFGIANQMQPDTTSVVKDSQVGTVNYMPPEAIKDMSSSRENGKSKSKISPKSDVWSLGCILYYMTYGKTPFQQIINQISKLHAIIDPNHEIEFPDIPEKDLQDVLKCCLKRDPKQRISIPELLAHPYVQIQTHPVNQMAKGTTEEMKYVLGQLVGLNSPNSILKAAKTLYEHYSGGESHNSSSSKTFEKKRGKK
Summary of the method: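 Purified human TTK (7.5 ng) was reacted with 5 μM ATP and 0.2 μg MBP substrate for 4 h at 25 °C in 40 mM Tris-HCl pH 7.4, 20 mM MgCl2, 0.1 mg/mL BSA, 50 μM DTT. ADP formation was read by ADP-Glo luminescence, and IC50 was taken relative to solvent control.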

TNF-α = assay: Inhibition of LPS-induced TNF-α secretion of THP-1 monocytes (ELISA); assay type: cell-based, human; settings: Homo sapiens, THP-1; compound 0.5 μM, LPS 500 ng/mL, 24 hours; read-out: THP-1/TNF-α (% inhib)
Summary of the method: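 THP-1 monocytes grown 16 h at 37 °C, pretreated 1 h with compound at final 0.5 μM, then stimulated with LPS at final 500 ng/mL for 24 h. IL-6 and TNF-α in culture supernatant measured by ELISA (OD 450 nm).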

MDA-MB-231 cell line = assay: Inhibition of proliferation of MDA-MB-231 cancer cells (Cell Titer-Glo); assay type: cell-based; settings: Homo sapiens, 72 hours
Summary of the method: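 Cells seeded at 2,000/well and exposed 72 h to 11 concentrations of compound (3-fold dilutions, final 10.000000 down to 0.000169 μM) in DMEM or RPMI. Viability read by Cell Titer-Glo luminescence after 10 min at room temperature; GI50 calculated from luminescence.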

CCNc1nc(Nc2ccc(C(=O)N3CCC(N4CCOCC4)CC3)c3c2OCC3)nc2[nH]cc(C(F)(F)F)c12 [Example 438, (7-((4-(ethylamino)-5-(trifluoromethyl)-7H-pyrrolo[2,3-d]pyrimidin-2-yl)amino)-2,3-dihydrobenzo-furan-4-yl)(4-morpho-linopiperidin-1-yl)methanone]
IC50 (TTK): < 100 nM
inhibition at 0.5 µM (TNF-α): 10.8%

O=C(c1ccc(Nc2nc(NC3CC3)c3c(C(F)(F)F)c[nH]c3n2)c2c1CCO2)N1CCC(N2CCOCC2)CC1 [Example 434, (7-((4-(cyclopropyl-amino)5-(trifluoromethyl)-7H-pyrrolo[2,3-d]pyrimidin-2-yl)amino)-2,3-dihydrobenzo-furan-4-yl)(4-morpho-linopiperidin-1-yl)methanone]
IC50 (TTK): < 100 nM
inhibition at 0.5 µM (TNF-α): 16%

C=CCNc1nc(Nc2ccc(S(=O)(=O)N3CCC(N4CCOCC4)CC3)cc2OC)nc2[nH]cc(C#N)c12 [Example 361, 4-(allylamino)-2-((2-methoxy-4-((4-morpholino-piperidin-1-yl)sulfonyl)phenyl)amino)-7H-pyrrolo[2,3-d]pyrimidine-5-carbonitrile]
IC50 (TTK): < 100 nM
inhibition at 0.5 µM (TNF-α): 9.3%

COCCNc1nc(Nc2ccc(C(=O)N3CCC(N4CCOCC4)CC3)c3c2OCC3)nc2[nH]cc(C(F)(F)F)c12 [Example 443, (7-((4-((2-methoxyethyl)amino)-5-(trifluoromethyl)-7H-pyrrolo[2,3-d]pyrimidin-2-yl)amino)-2,3-dihydrobenzo-furan-4-yl)(4-morpho-linopiperidin-1-yl)methanone]
IC50 (TTK): < 100 nM
inhibition at 0.5 µM (TNF-α): 10.8%

CNc1nc(Nc2ccc(S(=O)(=O)N3CCC(N4CCOCC4)CC3)cc2OC)nc2[nH]cc(C(F)(F)F)c12 [Example 157, N^2-(2-methoxy-4-((4-morpholinopiperidin-1-yl)sulfonyl)phenyl)-N^4-methyl-5-(trifluoromethyl)-7H-pyrrolo[2,3-d]pyrimidine-2,4-diamine 2,2,2-trifluoroacetate]
IC50 (TTK): < 100 nM
inhibition at 0.5 µM (TNF-α): 6.7%
GI50 (MDA-MB-231 cell line): 301 to 1000 nM

CNc1nc(Nc2ccc(S(=O)(=O)N3CCC(N4CCOCC4)CC3)c3c2OCCO3)nc2[nH]cc(C(F)(F)F)c12 [Example 219, N^4-methyl-N^2-(8-((4-morpholinopiperidin-1-yl)sulfonyl)-2,3-dihydrobenzo[b][1,4]dioxin-5-yl)-5-(trifluoromethyl)-7H-pyrrolo[2,3-d]pyrimidine-2,4-diamine]
IC50 (TTK): < 100 nM
inhibition at 0.5 µM (TNF-α): 6.6%
GI50 (MDA-MB-231 cell line): 301 to 1000 nM

CCNc1nc(Nc2ccc(S(=O)(=O)N3CCC(N4CCOCC4)CC3)c3c2OCCO3)nc2[nH]cc(C(F)(F)F)c12 [Example 430, N^4-ethyl-N^2-(8-((4-morpholino-piperidin-1-yl)sulfonyl)-2,3-dihydro-benzo[b][1,4]dioxin-5-yl)-5-(trifluoromethyl)-7H-pyrrolo[2,3-d]pyrimidine-2,4-diamine]
IC50 (TTK): < 100 nM
inhibition at 0.5 µM (TNF-α): 4.5%
GI50 (MDA-MB-231 cell line): 301 to 1000 nM

COCCNc1nc(Nc2ccc(C(=O)N3CCN(C4COC4)CC3)c3c2OCCO3)nc2[nH]cc(C(F)(F)F)c12 [Example 403, (8-((4-((2-methoxyethyl)-amino)-5-(trifluoromethyl)-7H-pyrrolo[2,3-d]pyrimidin-2-yl)amino)-2,3-dihydrobenzo[b] [1,4]dioxin-5-yl) (4-(oxetan-3-yl)piperazin-1-yl)methanone]
IC50 (TTK): < 100 nM
inhibition at 0.5 µM (TNF-α): 40.4%

COc1cc(S(=O)(=O)N2CCC(N3C[C@H]4C[C@@H]3CO4)CC2)ccc1Nc1nc(C2CC2)c2c(C(F)(F)F)c[nH]c2n1 [Example 473, N-(4-((4-((1R,4R)-2-oxa-5-azabicyclo[2.2.1]heptan-5-yl)piperidin-1-yl)sulfonyl)-2-methoxyphenyl)-4-cyclopropyl-5-(trifluoromethyl)-7H-pyrrolo[2,3-d]pyrimidin-2-amine]
IC50 (TTK): < 100 nM
inhibition at 0.5 µM (TNF-α): 11.3%
GI50 (MDA-MB-231 cell line): 101 to 300 nM

CCCNc1nc(Nc2ccc(C(=O)N3CCC(N4CCOCC4)CC3)c3c2OCC3)nc2[nH]cc(C(F)(F)F)c12 [Example 446, (4-morpholino-piperidin-1-yl)(7-((4-(propylamino)-5-(trifluoromethyl)-7H-pyrrolo[2,3-d]pyrimidin-2-yl)amino)-2,3-dihydrobenzo-furan-4-yl)methanone]
IC50 (TTK): < 100 nM
inhibition at 0.5 µM (TNF-α): 22.5%

COCCNc1nc(Nc2ccc(C(=O)N3CCC(N4CCOCC4)CC3)c3c2OCC3)nc2[nH]cc(C#N)c12 [Example 359, 4-((2-methoxy-ethyl)ami-no)-2-((4-(4-morpholino-piperidine-1-carbonyl)-2,3-dihydro-benzofuran-7-yl)amino)-7H-pyrrolo[2,3-d]pyrimidine-5-carbonitrile]
IC50 (TTK): < 100 nM
inhibition at 0.5 µM (TNF-α): 33.2%
GI50 (MDA-MB-231 cell line): 301 to 1000 nM

CCNc1nc(Nc2ccc(C(=O)N3CCC(N4C[C@@H]5C[C@H]4CO5)CC3)c3c2OCC3)nc2[nH]cc(C(F)(F)F)c12 [Example 468]
IC50 (TTK): < 100 nM
inhibition at 0.5 µM (TNF-α): 16.5%

O=C(c1ccc(Nc2nc(NC3CCCC3)c3c(C(F)(F)F)c[nH]c3n2)c2c1OCCO2)N1CCN(C2COC2)CC1 [Example 414, (8-((4-(cyclopentyl-amino)-5-(trifluoromethyl)-7H-pyrrolo[2,3-d]pyrimidin-2-yl)amino)-2,3-dihydrobenzo[b] [1,4]dioxin-5-yl) (4-(oxetan-3-yl)piperazin-1-yl)methanone]
IC50 (TTK): < 100 nM
inhibition at 0.5 µM (TNF-α): 40.3%
GI50 (MDA-MB-231 cell line): 101 to 300 nM

COc1cc(P2(=O)CCN(C3CCOCC3)CC2)ccc1Nc1nc(NC2CC2)c2c(C(F)(F)F)c[nH]c2n1 [Example 435, 4-(4-((4-(cyclo-propylamino)-5-(trifluoromethyl)-7H-pyrrolo[2,3-d]pyrimidin-2-yl)amino)-3-methoxyphenyl)-1-(tetrahydro-2H-pyran-4-yl)-1,4-azaphosphinane 4-oxide]
IC50 (TTK): < 100 nM
inhibition at 0.5 µM (TNF-α): 6.6%

CNc1nc(Nc2ccc(C(=O)N3CC[C@H](N4CCOCC4)C3)c3c2OCC3)nc2[nH]cc(C(F)(F)F)c12 [Example 236, (S)-(7-((4-(methylamino)-5-(trifluoromethyl)-7H-pyrrolo[2,3-d]pyrimidin-2-yl)amino)-2,3-dihydrobenzofuran-4-yl)(3-morpholinopyrrolidin-1-yl)methanone]
inhibition at 0.5 µM (TNF-α): 13.6%

CNc1nc(Nc2ccc(C(=O)N3CCN(C4COC4)CC3)c3c2OCCO3)nc2[nH]cc(C(F)(F)F)c12 [Example 397, (8-((4-(methylamino)-5-(trifluoromethyl)-7H-pyrrolo[2,3-d]pyrimidin-2-yl)amino)-2,3-dihydrobenzo[b] [1,4]dioxin-5-yl) (4-(oxetan-3-yl)piperazin-1-yl)methanone]
IC50 (TTK): < 100 nM
inhibition at 0.5 µM (TNF-α): 5.6%
